IC50 and melting point data for 25 compounds are collected here from patent US9593108B2, “Compounds and methods for antiviral treatment” (PTC Therapeutics, Inc., priority 2009, dated 2017).

For data set [1], the system named is HCV replicon RNA (GenBank Accession No. AJ242654). The experiment in a line: HCV Replicon Assay (replicon RNA reduction and/or Fluc reporter signal). Type of data set: cell-based, Hepatitis C virus. The following applies: Hepatitis C virus, 72 h, replicon-containing cells cultured with test compound for up to 3 days. The method, boiled down: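 Bicistronic replicon-containing cells cultured with compound for up to 3 days, with interferon as positive control. Inhibition quantified by replicon RNA reduction and/or Fluc reporter signal; IC50 values generally derived from replicon RNA reduction.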

Take `CC(C)(NS(=O)(=O)c1ccc(-c2c(C(N)=O)c3cc(C(F)F)cnc3n2C2CCC2)nc1)C(F)(F)F` [Cpd 471, 1-cyclobutyl-5-(difluoromethyl)-2-{5-[(1,1,1-trifluoro-2-methylpropan-2-yl)sulfamoyl]pyridin-2-yl}-1H-pyrrolo[2,3-b]pyridine-3-carboxamide]: the melting point lay in the range of 205 to 207 °C. This compound registered an IC50 in data set [1] of under 500 nM.

`NC(=O)c1c(-c2ccc(S(=O)(=O)NC3(C(F)(F)F)CC3)cn2)n(C2CCC2)c2ncc(C(F)F)cc12` [Cpd 472, 1-cyclobutyl-5-(difluoromethyl)-2-(5-{[1-(trifluoromethyl)cyclopropyl]sulfamoyl}pyridin-2-yl)-1H-pyrrolo[2,3-b]pyridine-3-carboxamide] showed a melting point of 210 to 212 °C. In data set [1], this compound had an IC50 of under 500 nM.

As for `CCc1cnc2c(c1)c(C#N)c(-c1ccc(S(=O)(=O)N[C@@H](C)C(F)(F)F)cn1)n2-c1ncc(F)cn1` [Cpd 473, 6-[3-cyano-5-ethyl-1-(5-fluoropyrimidin-2-yl)-1H-pyrrolo[2,3-b]pyridin-2-yl]-N-[(2S)-1,1,1-trifluoropropan-2-yl]pyridine-3-sulfonamide], the melting point fell in the range of 175 to 177 °C. The IC50 in data set [1] is under 500 nM.

The compound `CCc1cnc2c(c1)c(C#N)c(-c1ccc(S(=O)(=O)N[C@@H](C)C(F)(F)F)cn1)n2-c1ccc(F)cn1` [Cpd 474, 6-[3-cyano-5-ethyl-1-(5-fluoropyridin-2-yl)-1H-pyrrolo[2,3-b]pyridin-2-yl]-N-[(2S)-1,1,1-trifluoropropan-2-yl]pyridine-3-sulfonamide] returned a melting point of 175 to 177 °C. Moreover, the IC50 in data set [1] was under 500 nM.

In turn, `Cc1cnc2c(C#N)c(-c3ccc(S(=O)(=O)N[C@@H](C)C(F)(F)F)cn3)n(-c3ncccn3)c2c1` [Cpd 475, 6-[3-cyano-6-methyl-1-(pyrimidin-2-yl)-1H-pyrrolo[3,2-b]pyridin-2-yl]-N-[(2S)-1,1,1-trifluoropropan-2-yl]pyridine-3-sulfonamide] displayed a melting point of 226 to 228 °C. The same compound showed an IC50 in data set [1] of under 500 nM.

Regarding `Cc1cnc2c(C#N)c(-c3ccc(S(=O)(=O)N[C@@H](C)C(F)(F)F)cn3)n(-c3ccccc3)c2c1` [Cpd 476, 6-(3-cyano-6-methyl-1-phenyl-1H-pyrrolo[3,2-b]pyridin-2-yl)-N-[(2S)-1,1,1-trifluoropropan-2-yl]pyridine-3-sulfonamide], the melting point was 245 to 247 °C. In data set [1], this compound yielded a 50% inhibitory concentration (IC50) of under 500 nM.

`Cc1cnc2c(C#N)c(-c3ccc(S(=O)(=O)N[C@@H](C)C(F)(F)F)cn3)n(-c3nccs3)c2c1` [Cpd 477, 6-[3-cyano-6-methyl-1-(1,3-thiazol-2-yl)-1H-pyrrolo[3,2-b]pyridin-2-yl]-N-[(2S)-1,1,1-trifluoropropan-2-yl]pyridine-3-sulfonamide] returned a melting point of 230 to 232 °C. The compound further came in with an IC50 in data set [1] of under 500 nM.

Take `Cc1cnc2c(C#N)c(-c3ccc(S(=O)(=O)N[C@@H](C)C(F)(F)F)cn3)n(-c3cncs3)c2c1` [Cpd 478, 6-[3-cyano-6-methyl-1-(1,3-thiazol-5-yl)-1H-pyrrolo[3,2-b]pyridin-2-yl]-N-[(2S)-1,1,1-trifluoropropan-2-yl]pyridine-3-sulfonamide]: the melting point lay in the range of 273 to 275 °C. The same compound returned an IC50 in data set [1] of 500 to 2000 nM.

Take `Cc1cnc2c(C#N)c(-c3ccc(S(=O)(=O)N[C@@H](C)C(F)(F)F)cn3)n(-c3cc(C(F)(F)F)ccn3)c2c1` [Cpd 479, 6-{3-cyano-6-methyl-1-[4-(trifluoromethyl)pyridin-2-yl]-1H-pyrrolo[3,2-b]pyridin-2-yl}-N-[(2S)-1,1,1-trifluoropropan-2-yl]pyridine-3-sulfonamide]: the melting point fell in the range of 245 to 246 °C. In data set [1], this compound displayed an IC50 of 500 to 2000 nM.

`Cc1cnc2c(C#N)c(-c3ccc(S(=O)(=O)N[C@@H](C)C(F)(F)F)cn3)n(-c3ccnnc3)c2c1` [Cpd 480, 6-[3-cyano-6-methyl-1-(pyridazin-4-yl)-1H-pyrrolo[3,2-b]pyridin-2-yl]-N-[(2S)-1,1,1-trifluoropropan-2-yl]pyridine-3-sulfonamide] displayed a melting point of 283 to 285 °C. Moreover, the IC50 in data set [1] was 2000 to 5000 nM.

In turn, `Cc1cnc2c(C#N)c(-c3ccc(S(=O)(=O)N[C@@H](C)C(F)(F)F)cn3)n(-c3ccncn3)c2c1` [Cpd 481, 6-[3-cyano-6-methyl-1-(pyrimidin-4-yl)-1H-pyrrolo[3,2-b]pyridin-2-yl]-N-[(2S)-1,1,1-trifluoropropan-2-yl]pyridine-3-sulfonamide] returned a melting point of 265 to 267 °C. Moreover, the IC50 in data set [1] was under 500 nM.

For the compound `Cc1cnc2c(C#N)c(-c3ccc(S(=O)(=O)N[C@@H](C)C(F)(F)F)cn3)n(-c3ccncc3)c2c1` [Cpd 482, 6-[3-cyano-6-methyl-1-(pyridin-4-yl)-1H-pyrrolo[3,2-b]pyridin-2-yl]-N-[(2S)-1,1,1-trifluoropropan-2-yl]pyridine-3-sulfonamide], the melting point was 303 to 305 °C. For the same compound, the IC50 in data set [1] was under 500 nM.

For the compound `Cc1cnc2c(c1)c(C#N)c(-c1ccc(S(=O)(=O)N[C@@H](C)C(F)(F)F)cc1)n2C` [Cpd 483, 4-(3-cyano-1,5-dimethyl-1H-pyrrolo[2,3-b]pyridin-2-yl)-N-[(2S)-1,1,1-trifluoropropan-2-yl]benzenesulfonamide], the melting point lay in the range of 165 to 170 °C. The compound further displayed an IC50 in data set [1] of 500 to 2000 nM.

`CCn1c(-c2ccc(S(=O)(=O)N[C@@H](C)C(F)(F)F)cc2)c(C#N)c2cc(C)cnc21` [Cpd 484, 4-(3-cyano-1-ethyl-5-methyl-1H-pyrrolo[2,3-b]pyridin-2-yl)-N-[(2S)-1,1,1-trifluoropropan-2-yl]benzenesulfonamide] gave a melting point of 147 to 152 °C. Further, in data set [1], the IC50 is 500 to 2000 nM.

With `CCCn1c(-c2ccc(S(=O)(=O)N[C@@H](C)C(F)(F)F)cc2)c(C#N)c2cc(C)cnc21` [Cpd 485, 4-(3-cyano-5-methyl-1-propyl-1H-pyrrolo[2,3-b]pyridin-2-yl)-N-[(2S)-1,1,1-trifluoropropan-2-yl]benzenesulfonamide], the melting point was 235 to 240 °C. For the same compound, the IC50 in data set [1] is under 500 nM.

Compound `Cc1cnc2c(c1)c(C#N)c(-c1ccc(S(=O)(=O)N[C@@H](C)C(F)(F)F)cc1)n2C(C)C` [Cpd 486, 4-[3-cyano-5-methyl-1-(propan-2-yl)-1H-pyrrolo[2,3-b]pyridin-2-yl]-N-[(2S)-1,1,1-trifluoropropan-2-yl]benzenesulfonamide] registered a melting point of 197 to 202 °C. The IC50 in data set [1] was under 500 nM.

`Cc1cnc2c(c1)c(C#N)c(-c1ccc(S(=O)(=O)N[C@@H](C)C(F)(F)F)cc1)n2CC1CC1` [Cpd 487, 4-[3-cyano-1-(cyclopropylmethyl)-5-methyl-1H-pyrrolo[2,3-b]pyridin-2-yl]-N-[(2S)-1,1,1-trifluoropropan-2-yl]benzenesulfonamide] came in with a melting point of 175 to 181 °C. The IC50 in data set [1] is under 500 nM.

Compound `Cc1cnc2c(c1)c(C#N)c(-c1ccc(S(=O)(=O)N[C@@H](C)C(F)(F)F)cc1)n2CC(C)C` [Cpd 488, 4-[3-cyano-5-methyl-1-(2-methylpropyl)-1H-pyrrolo[2,3-b]pyridin-2-yl]-N-[(2S)-1,1,1-trifluoropropan-2-yl]benzenesulfonamide] registered a melting point of 168 to 176 °C. The compound further had an IC50 in data set [1] of under 500 nM.

Consider `Cc1cnc2c(c1)c(C#N)c(-c1ccc(S(=O)(=O)N[C@@H](C)C(F)(F)F)cc1)n2CC1CCC1` [Cpd 489, 4-[3-cyano-1-(cyclobutylmethyl)-5-methyl-1H-pyrrolo[2,3-b]pyridin-2-yl]-N-[(2S)-1,1,1-trifluoropropan-2-yl]benzenesulfonamide], for which the melting point lay within 154 to 158 °C. Moreover, the IC50 in data set [1] was under 500 nM.

`Cc1cnc2c(c1)c(C#N)c(-c1ccc(S(=O)(=O)N[C@@H](C)C(F)(F)F)cn1)n2C` [Cpd 490, 6-(3-cyano-1,5-dimethyl-1H-pyrrolo[2,3-b]pyridin-2-yl)-N-[(2S)-1,1,1-trifluoropropan-2-yl]pyridine-3-sulfonamide] showed a melting point of 182 to 186 °C. The compound also yielded an IC50 in data set [1] of 500 to 2000 nM.

In turn, `CCn1c(-c2ccc(S(=O)(=O)N[C@@H](C)C(F)(F)F)cn2)c(C#N)c2cc(C)cnc21` [Cpd 491, 6-(3-cyano-1-ethyl-5-methyl-1H-pyrrolo[2,3-b]pyridin-2-yl)-N-[(2S)-1,1,1-trifluoropropan-2-yl]pyridine-3-sulfonamide] showed a melting point of 168 to 171 °C. Moreover, the IC50 in data set [1] was under 500 nM.

The compound `CCCn1c(-c2ccc(S(=O)(=O)N[C@@H](C)C(F)(F)F)cn2)c(C#N)c2cc(C)cnc21` [Cpd 492, 6-(3-cyano-5-methyl-1-propyl-1H-pyrrolo[2,3-b]pyridin-2-yl)-N-[(2S)-1,1,1-trifluoropropan-2-yl]pyridine-3-sulfonamide] yielded a melting point of 145 to 149 °C. Moreover, the IC50 in data set [1] was under 500 nM.

Take `Cc1cnc2c(c1)c(C#N)c(-c1ccc(S(=O)(=O)N[C@@H](C)C(F)(F)F)cn1)n2C(C)C` [Cpd 493, 6-[3-cyano-5-methyl-1-(propan-2-yl)-1H-pyrrolo[2,3-b]pyridin-2-yl]-N-[(2S)-1,1,1-trifluoropropan-2-yl]pyridine-3-sulfonamide]: the melting point was 157 to 162 °C. In addition, the 50% inhibitory concentration (IC50) in data set [1] was under 500 nM.

Compound `Cc1cnc2c(c1)c(C#N)c(-c1ccc(S(=O)(=O)N[C@@H](C)C(F)(F)F)cn1)n2CC1CC1` [Cpd 494, 6-[3-cyano-1-(cyclopropylmethyl)-5-methyl-1H-pyrrolo[2,3-b]pyridin-2-yl]-N-[(2S)-1,1,1-trifluoropropan-2-yl]pyridine-3-sulfonamide] displayed a melting point of 198 to 204 °C. In data set [1], the IC50 is under 500 nM.

In the case of `Cc1cnc2c(c1)c(C#N)c(-c1ccc(S(=O)(=O)N[C@@H](C)C(F)(F)F)cn1)n2CC(C)C` [Cpd 495, 6-[3-cyano-5-methyl-1-(2-methylpropyl)-1H-pyrrolo[2,3-b]pyridin-2-yl]-N-[(2S)-1,1,1-trifluoropropan-2-yl]pyridine-3-sulfonamide], the melting point is 125 to 130 °C. Besides, the IC50 in data set [1] is under 500 nM.

As usually defined, the IC50 is the concentration that gives 50% inhibition. A higher IC50 goes with lower potency. A word on the melting point: it is the temperature, or range, at which the solid turns liquid.
